Series [1] relates to MKU-28 gastric cancer cells. Briefly: Inhibition of proliferation of human gastric cancer cells MKU-28 (Tests 2 and 4). The format is cell-based. The conditions noted are these: gastric cancer MKU-28, RMP-1640 + 10% calf serum, 37° C. The protocol:
(§1) Cells of gastric cancer, pulmonary cancer, liver cancer and leukemia, which had been separated from human patients, were separately placed in portions of RMP-1640 medium containing 10% calf serum and then incubated at 37° C. for 4 days in a 5% CO2 -incubator to obtain a cell population of 10^4 /ml. To the cells of each cancer kind so cultured, stelleramacrin was added at varied concentrations, and the concentration (IC50) of each test compound at which proliferation of the human cancer cells was inhibited by 50% was deterimined.
(§2) Cells of gastric cancer, pulmonary cancer, liver cancer and leukemia, which had been separated from human patients, were separately placed on portions of RMP-1640 medium containing 10% calf serum and then incubated at 37° C. for 4 days in a 5% CO2 -incubator to obtain a cell population of 10^4 /ml. To the cells of each cancer kind so cultured, gnidimacrin or pimelea factor was added at varied concentrations, and the concentration (IC50) of the test compound at which proliferation of the human cancer cells was inhibited by 50% was determined.

In series [2] the test system is MKV-74 gastric cancer cells. Kind of series: Inhibition of proliferation of human gastric cancer cells MKV-74 (Tests 2 and 4). The format is cell-based. The conditions noted are these: gastric cancer MKV-74, RMP-1640 + 10% calf serum, 37° C. On the procedure:
as §1, §2

Series [3] relates to Lewis pulmonary cancer cells. Briefly: Lewis pulmonary cancer in mice, intravenous administration. The format is in vivo, mouse. The conditions noted are these: 0.06 mg/Kg.
Series [4] has as its system solid cancer such as gastric cancer, pulmonary cancer, liver cancer. Kind of series: Inhibiting action against solid cancer (summary statement). The conditions noted are these: liver cancer or the like.
In the next series the test system is Meth A fibrosarcoma. Kind of series: Meth A fibrosarcoma solid cancer in male BALB/c mice, injection into the cancer (Test 5). The conditions noted are these: 0.001 mg/Kg injected into solid cancer once a day for 5 days, 21st day. The format is in vivo, mouse (BALB/c). On the procedure: Using laboratory animals, effects of gnidimacrin on solid cancer were studied. First, intradermally inoculated to male BALB/c mice (each group consisting of 6 mice, each having a weight of 17-21 g) was 0.01 ml of RPMI 1640 solution which contained 10% fetal serum and 1×10^5 cells/ml of Meth A fibrosarcoma. Seven days after the inoculation, solid cancer was formed. Into the solid cancer, gnidimacrin which had been dissolved in physiological saline containing 0.5% CMC, was administered at 0.001 mg/Kg by injection. That administration was conducted once a day for 5 days. On the 21st day from the inoculation of Meth A fibrosarcoma, the cancer was cut out and its weight was compared with that of a control group not administered with gnidimacrin. […] Namely, gnidimacrin inhibited the proliferation of the solid cancer by 81%.

Series [5] relates to K-III gastric cancer cells. Kind of series: Inhibition of proliferation of human gastric cancer cells K-III (Tests 2 and 4). The format is cell-based. The conditions noted are these: RMP-1640 + 10% calf serum, 37° C. The protocol: as §1, §2
Series [6] has as its system Colon 26 large bowel cancer. Briefly: Colon 26 large bowel cancer, hypodermic transplant in BALB/C mice (Test 3). The conditions noted are these: once a day for 5 days, vs control. The class given is in vivo, mouse (BALB/C). The protocol: (§3) Hypodermically transplanted to induce solid cancer were Lewis pulmonary cancer cells to BDF1 mice in an amount of 1×10^6 cells per mouse, Clon 26 large bowel cancer cells to BALB/C mice in an amount of 5×10^5 cells per mouse and a 20% homogenate of B-16 melanoma solid cancer to BDF1 mice in an amount of 0.25 ml per mouse. From the following day of the transplantation, gnidimacrin and pimelea factor P2 were administered separately once a day for 5 days. Each test group was compared in apothanasia rate with a control group. The results on gnidimacrin and pimelea factor P2 are shown in Table 3 and Table 4, respectively.

In series [7] the test system is N-237 pulmonary cancer cells. Kind of series: Inhibition of proliferation of human pulmonary cancer cells N-237 (Tests 2 and 4). The format is cell-based. The conditions noted are these: pulmonary cancer N-237, RMP-1640 + 10% calf serum, 37° C. On the procedure:
as §1, §2

For series [8], the system named is H-69 pulmonary cancer cells. Briefly: Inhibition of proliferation of human pulmonary cancer cells H-69 (Tests 2 and 4). The class given is cell-based. The conditions noted are these: pulmonary cancer H-69, RMP-1640 + 10% calf serum, 37° C. On the procedure: as §1, §2
Series [9] concerns MKV-45 gastric cancer cells. Kind of series: Inhibition of proliferation of human gastric cancer cells MKV-45 (Tests 2 and 4). The format is cell-based. The conditions noted are these: gastric cancer MKV-45, RMP-1640 + 10% calf serum, 37° C. On the procedure:
as §1, §2

Another series deals with K-502 leukemia cells. Briefly: Inhibition of proliferation of human leukemia cells K-502 (Tests 2 and 4). The format is cell-based. The conditions noted are these: leukemia K-502, RMP-1640 + 10% calf serum, 37° C. On the procedure:
as §1, §2

Series [10] has as its system Lewis pulmonary cancer cells. Kind of series: Lewis pulmonary cancer, hypodermic transplant in BDF1 mice (Test 3). The format is in vivo, mouse (BDF1). The conditions noted are these: once a day for 5 days, vs control. On the procedure: as §3
The next series relates to HLE liver cancer cells. Briefly: Inhibition of proliferation of human liver cancer cells HLE (Tests 2 and 4). The conditions noted are these: RMP-1640 + 10% calf serum, 37° C. The class given is cell-based. The protocol:
as §1, §2

The subject of a further series is B-16 melanoma. Kind of series: B-16 melanoma, hypodermic transplant in BDF1 mice (Test 3). The conditions noted are these: once a day for 5 days, vs control. The class given is in vivo, mouse (BDF1). The protocol: as §3
Series [11] has as its system LU-99 pulmonary cancer cells. Briefly: Inhibition of proliferation of human pulmonary cancer cells LU-99 (Tests 2 and 4). The conditions noted are these: pulmonary cancer LU-99, RMP-1640 + 10% calf serum, 37° C. The format is cell-based. On the procedure: as §1, §2
Series [12] concerns PC-7 pulmonary cancer cells. Kind of series: Inhibition of proliferation of human pulmonary cancer cells PC-7 (Tests 2 and 4). The class given is cell-based. The conditions noted are these: pulmonary cancer PC-7, RMP-1640 + 10% calf serum, 37° C. The protocol: as §1, §2
Series [13] has as its system PC-14 pulmonary cancer cells. Kind of series: Inhibition of proliferation of human pulmonary cancer cells PC-14 (Tests 2 and 4). The class given is cell-based. The conditions noted are these: pulmonary cancer PC-14, RMP-1640 + 10% calf serum, 37° C. On the procedure:
as §1, §2

Series [14] concerns mouse leukemia cell P-388. Briefly: P-388 mouse leukemia, intraperitoneal transplant in BDF1 mice, survival (Test 1). The class given is in vivo. The conditions noted are these: 1 mg/kg, once a day for 5 days. The text has this:
The mouse leukemia cell P-388 was intraperitoneally transplanted to BDF1 mice in an amount of 1×10^6 cells per mouse. From the following day, each test drug was intraperitoneally administered to the mice once a day for 5 days. Each test group was compared in the number of survival days with a control group to determine an apothanasia rate.

The next series can be described thus: Acute toxicity (LD50). The conditions noted are these: in vivo; species and route not given.

Usually IC50 stands for the concentration at which inhibition is half-maximal. The LD50 is the dose at which mortality reaches 50%.

SMILES strings stand for the structures. Where two headings read alike, the source gives them in different places.

In the case of `C=C(C)[C@@]12C[C@@H](COC(=O)c3ccccc3)[C@@]34OC5(O[C@@H]1[C@@H]3[C@@H]1O[C@]1(CO)[C@@H](O)[C@@]1(O)[C@H]4[C@H]([C@H](C)[C@@H]1OC(=O)c1ccccc1)[C@H](C)CCCCCC[C@H]5O)O2` (single isomer, unassigned) [Gnidimacrin, gnidimacrin], the 50% inhibitory concentration (IC50) in [1] (Homo sapiens, read-out: IC50) is 0.006 µg/mL; in [2] (Homo sapiens, read-out: IC50), above 1 µg/mL; in series [5] (Homo sapiens, read-out: IC50), 0.0006 µg/mL; in series [7] (Homo sapiens, read-out: IC50), 0.2 µg/mL; in [8] (Homo sapiens, read-out: IC50), 0.6 µg/mL; in series [9] (Homo sapiens, read-out: IC50) it was 0.0001 µg/mL. The IC50 is 0.0025 µg/mL with K-502 leukemia cells (Homo sapiens, read-out: IC50); 2 µg/mL in the series on HLE liver cancer cells (Homo sapiens, read-out: IC50); 1 µg/mL in series [11] (Homo sapiens, read-out: IC50); 0.5 µg/mL in series [12] (Homo sapiens, read-out: IC50); 0.85 µg/mL in series [13] (Homo sapiens, read-out: IC50). For the same compound, the Apothanasia rate is 47.8% in series [3], 26.8% in [6] (0.01 mg/kg), 40.0% in series [10] (0.02 mg/kg) and 49.2% in the series with B-16 melanoma (0.02 mg/kg). Also, the “inhibiting action against solid cancer” value in series [4] is reported as “strong inhibiting action”. Besides, the average cancer weight with Meth A fibrosarcoma (control group 2.1 g) stood at 0.4 g. Moreover, in the series on Meth A fibrosarcoma (vs control), the “inhibition of the proliferation of the solid cancer” value was 81%.
As for `C=C(C)C12CC(COC(=O)c3ccccc3)C34OC5(OC1C3C1OC1(CO)C(O)C1(O)C(O)C(C)C(C(C)CCCCCCC5O)C14)O2` (single isomer, unassigned) [Stelleramacrin A], in [14] (control group 8.08 days), the “Average number of survival days” value was 13.83 days. The compound also showed an Apothanasia rate in series [14] (survival days vs control) of 71%. Further, the IC50 in [1] (Homo sapiens, read-out: IC50) was 0.2 µg/mL; in series [2] (Homo sapiens, read-out: IC50) it was above 10 µg/mL; in [5] (Homo sapiens, read-out: IC50) it was 0.1 µg/mL; in series [7] (Homo sapiens, read-out: IC50) it was 5.3 µg/mL; in [8] (Homo sapiens, read-out: IC50) it was 10.2 µg/mL; in [9] (Homo sapiens, read-out: IC50) it was 0.8 µg/mL. Moreover, the 50% inhibitory concentration (IC50) in the series on K-502 leukemia cells (Homo sapiens, read-out: IC50) was 10 µg/mL; with HLE liver cancer cells (Homo sapiens, read-out: IC50) it was above 10 µg/mL; in [11] (Homo sapiens, read-out: IC50) it was above 10 µg/mL; in series [12] (Homo sapiens, read-out: IC50), 5.1 µg/mL; in series [13] (Homo sapiens, read-out: IC50), 8.4 µg/mL. Also, the median lethal dose (LD50) in the series “Acute toxicity (LD50)” worked out at 5 mg/kg.
For `C=C(C)[C@]12C[C@@H](C)[C@@]34OC5(CCCCCCC[C@H](C)[C@H]6[C@H](C)[C@H](OC(=O)c7ccccc7)[C@@](O)([C@H](O)[C@@]7(CO)O[C@H]7[C@H]3[C@H]1O5)[C@@H]64)O2` [Pimelea factor P2, pimelea factor P2], the IC50 in series [1] was 0.01 µg/mL; in series [2] it was 10 µg/mL; in [5] it was 0.003 µg/mL; in series [7], 3.8 µg/mL; in series [8], 7 µg/mL; in [9], 0.005 µg/mL. Further, the IC50 is 0.3 µg/mL with K-502 leukemia cells; 10 µg/mL with HLE liver cancer cells; 10 µg/mL in series [11]; 1.7 µg/mL in [12]; 3.2 µg/mL in series [13]. Besides, the “inhibiting action against solid cancer” value in series [4] was “strong inhibiting action”. Moreover, the figures for the Apothanasia rate (in [6] (0.05 mg/kg); in series [10] (0.1 mg/kg); in the series on B-16 melanoma (0.1 mg/kg)) were 18.5%, 35.2% and 41.8%, respectively.

The record behind these values is patent US5616609A, “Carcinostatic compound and production thereof” (priority 1991, dated 1997).
